# Test results published in article PMC9354042, “Discovery of BRAF/HDAC Dual Inhibitors Suppressing Proliferation of Human Colorectal Cancer Cells” (Frontiers in Chemistry, 2022).
# Entries after “also recorded” stand apart in the source; their conditions may differ.
# Tests used:
# [1] = test system: P-ERK in B16 cells; test: Immunoblot analysis of P-ERK in B16 cells; type: cell-based; settings: B16 mouse melanoma cells with wild type BRAF, 24 h
# Description: Supplementary Figure 2. 14b inhibit the phosphorylation of ERK in B16 cells.
# [2] = target: T1, BRAF^V600E (Homo sapiens, UniProt P15056, V600E); test: BRAF V600E enzymatic activity, FRET-based Z'-Lyte kinase assay; type: biochemical
# T1 construct: purchased Invitrogen
# T1 sequence (P15056 whole entry V600E): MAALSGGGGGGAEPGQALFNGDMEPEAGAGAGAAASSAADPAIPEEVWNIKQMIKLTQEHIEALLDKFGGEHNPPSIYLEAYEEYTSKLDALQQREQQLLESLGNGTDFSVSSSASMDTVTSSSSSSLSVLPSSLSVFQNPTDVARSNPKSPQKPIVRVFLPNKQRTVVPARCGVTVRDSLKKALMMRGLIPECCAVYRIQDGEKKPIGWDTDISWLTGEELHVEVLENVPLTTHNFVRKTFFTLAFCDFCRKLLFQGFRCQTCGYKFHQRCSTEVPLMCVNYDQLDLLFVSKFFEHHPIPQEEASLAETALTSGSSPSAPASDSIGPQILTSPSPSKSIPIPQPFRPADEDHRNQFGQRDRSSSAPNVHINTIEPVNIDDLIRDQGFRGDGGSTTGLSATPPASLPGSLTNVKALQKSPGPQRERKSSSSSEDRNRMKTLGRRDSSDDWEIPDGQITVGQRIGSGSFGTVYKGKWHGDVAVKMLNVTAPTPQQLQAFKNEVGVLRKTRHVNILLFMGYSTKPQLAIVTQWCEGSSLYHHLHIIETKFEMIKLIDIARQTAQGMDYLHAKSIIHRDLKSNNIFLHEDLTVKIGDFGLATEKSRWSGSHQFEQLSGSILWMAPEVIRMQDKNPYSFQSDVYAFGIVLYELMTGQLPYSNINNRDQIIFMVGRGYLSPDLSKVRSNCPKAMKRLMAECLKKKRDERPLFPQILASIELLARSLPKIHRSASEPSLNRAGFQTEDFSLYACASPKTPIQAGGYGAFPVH
# Experimental: (§1) The experiments were performed according to the instructions of the manufacturer. […] For each assay, 10 μl kinase reactions were added to 384-well plate, mixed thoroughly, and incubated for 1 hour at room temperature. Then, a 5 μl development solution was added to each well and the plate was incubated for another 1 h at room temperature. Then, a 5 μl stop reagent was loaded to stop the reaction. For the control setting, a 5 μl phospho-peptide solution instead of kinase/peptide mixture was used as 100% phosphorylation control. […] The plate was measured on an EnVision Multilabel Reader (Perkin-Elmer). Curve fitting and data presentations were performed using GraphPad Prism, version 5.0. Every experiment was repeated at least two times.
# [3] = target: T2, HDAC8 (Homo sapiens, UniProt Q9BY41); test: HDAC8 fluorescent-based enzymatic activity assay; type: biochemical; settings: Table 3 isoform panel; read-out: Enzyme inhibition HDAC8 (Class I)
# T2 construct: purchased BPS Bioscience
# T2 sequence (Q9BY41 1-377): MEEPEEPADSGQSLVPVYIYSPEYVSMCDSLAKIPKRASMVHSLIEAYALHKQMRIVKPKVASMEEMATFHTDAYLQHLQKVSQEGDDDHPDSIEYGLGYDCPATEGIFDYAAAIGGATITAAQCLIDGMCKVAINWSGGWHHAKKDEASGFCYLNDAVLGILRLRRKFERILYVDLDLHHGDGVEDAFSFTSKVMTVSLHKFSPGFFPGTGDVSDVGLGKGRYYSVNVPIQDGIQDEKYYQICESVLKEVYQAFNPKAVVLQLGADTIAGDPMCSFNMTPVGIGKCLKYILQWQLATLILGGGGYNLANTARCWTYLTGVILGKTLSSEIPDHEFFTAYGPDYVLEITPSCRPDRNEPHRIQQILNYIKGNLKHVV
# Experimental: (§2) The purified recombinant Human HDACs and their corresponding substrates were purchased from BPS Bioscience (BPS Bioscience Inc., United States). The assays were carried out in a 384-well format using the BPS fluorescent–based HDAC activity assay according to the manufacturer’s protocol. In brief, […] of the HDAC reaction mixture was composed of HDAC assay buffer, […] BSA, serial diluted test compounds, appropriate concentration of HDACs, and […] fluorogenic substrate, the mixture was incubated at 37°C for 60 min, and then stopped by the addition of developer containing trypsin and TSA. After 20 min of incubation, the fluorescence was detected at the excitation wavelength of 360 nm and the emission wavelength of 460 nm using the EnVision Multilabel Reader (PerkinElmer Inc., United States). The analytical software, GraphPad Prism 5.0 (GraphPad Software, Inc., United States) was used to generate IC50 value via non-linear regression analysis.
# [4] = target: T3, HDAC4 (Homo sapiens, UniProt P56524); test: HDAC4 fluorescent-based enzymatic activity assay; type: biochemical; settings: Table 3 isoform panel; read-out: Enzyme inhibition HDAC4 (Class IIA)
# T3 construct: purchased BPS Bioscience
# T3 sequence (P56524 whole entry, canonical isoform): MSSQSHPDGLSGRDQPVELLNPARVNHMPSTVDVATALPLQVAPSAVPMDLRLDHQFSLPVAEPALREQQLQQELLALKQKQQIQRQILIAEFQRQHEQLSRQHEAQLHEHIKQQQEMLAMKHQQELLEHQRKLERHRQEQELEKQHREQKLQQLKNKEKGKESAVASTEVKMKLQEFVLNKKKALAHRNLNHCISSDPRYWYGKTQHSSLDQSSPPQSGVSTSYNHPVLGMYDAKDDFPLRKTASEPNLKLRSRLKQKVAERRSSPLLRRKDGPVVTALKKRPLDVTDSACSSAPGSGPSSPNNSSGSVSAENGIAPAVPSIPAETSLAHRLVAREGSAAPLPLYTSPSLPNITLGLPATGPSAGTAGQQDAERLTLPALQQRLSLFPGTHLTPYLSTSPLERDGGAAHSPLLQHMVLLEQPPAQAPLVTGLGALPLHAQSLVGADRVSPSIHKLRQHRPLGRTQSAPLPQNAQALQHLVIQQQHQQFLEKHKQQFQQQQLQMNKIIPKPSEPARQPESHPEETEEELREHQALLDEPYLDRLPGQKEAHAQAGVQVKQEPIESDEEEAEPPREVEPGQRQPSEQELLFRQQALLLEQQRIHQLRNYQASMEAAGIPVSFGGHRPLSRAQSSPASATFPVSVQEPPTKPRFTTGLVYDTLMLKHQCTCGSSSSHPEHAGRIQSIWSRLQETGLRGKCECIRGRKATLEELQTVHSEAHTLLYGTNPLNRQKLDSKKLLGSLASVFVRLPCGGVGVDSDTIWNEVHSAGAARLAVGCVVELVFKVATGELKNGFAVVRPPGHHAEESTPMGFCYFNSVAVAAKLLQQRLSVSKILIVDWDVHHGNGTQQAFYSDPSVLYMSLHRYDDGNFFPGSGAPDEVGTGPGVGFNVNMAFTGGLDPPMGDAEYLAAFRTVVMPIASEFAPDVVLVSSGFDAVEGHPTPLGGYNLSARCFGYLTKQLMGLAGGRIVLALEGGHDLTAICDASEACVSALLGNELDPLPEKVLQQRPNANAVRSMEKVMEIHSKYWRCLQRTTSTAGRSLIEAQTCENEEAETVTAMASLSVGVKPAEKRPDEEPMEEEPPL
# Experimental: as §2
# [5] = test system: HT-29 cells; test: Antiproliferation CCK-8 assay, HT-29; type: cell-based; settings: Homo sapiens; CCK-8, 72 h, HT-29 (BRAF^V600E); means of three independent experiments; read-out: Cellular IC50 HT-29
# Experimental: (§3) HCT116 and HT-29 cells were obtained from the Shanghai Cell Bank (Type Culture Collection (TCC), Chinese Academy of Sciences) and cultured in DMEM (10–013-CVR, corning) supplemented with 10% fetal bovine serum (04-001-1A, BI), 1% penicillin/streptomycin (03-031-1B, BI).
# (§4) The cells in the logarithmic phase were placed in 96-well plates (∼3000 cells/well) in a complete medium. After incubation overnight, the cells were exposed to the corresponding compounds or vehicle control at the indicated concentration for a further 72 h. Cell proliferation was evaluated using Cell Counting Kit 8 (CCK8, CK04, Dojindo Laboratories, Kumamoto, Japan). OD450 and OD650 were determined using a microplate reader. Absorbance rate (A) for each well was calculated as OD450 −OD650. […] Each IC50 value is expressed as mean ± SD. As is the absorbance rate of the test compound well, Ac is the absorbance rate of the well without either the cell or test compound, and Ab is the absorbance rate of the well with the cell and vehicle control.
# [6] = target: T4, HDAC2 (Homo sapiens, UniProt Q92769); test: HDAC2 fluorescent-based enzymatic activity assay; type: biochemical; settings: Table 3 isoform panel; read-out: Enzyme inhibition HDAC2 (Class I)
# T4 construct: purchased BPS Bioscience
# T4 sequence (Q92769 whole entry, canonical isoform): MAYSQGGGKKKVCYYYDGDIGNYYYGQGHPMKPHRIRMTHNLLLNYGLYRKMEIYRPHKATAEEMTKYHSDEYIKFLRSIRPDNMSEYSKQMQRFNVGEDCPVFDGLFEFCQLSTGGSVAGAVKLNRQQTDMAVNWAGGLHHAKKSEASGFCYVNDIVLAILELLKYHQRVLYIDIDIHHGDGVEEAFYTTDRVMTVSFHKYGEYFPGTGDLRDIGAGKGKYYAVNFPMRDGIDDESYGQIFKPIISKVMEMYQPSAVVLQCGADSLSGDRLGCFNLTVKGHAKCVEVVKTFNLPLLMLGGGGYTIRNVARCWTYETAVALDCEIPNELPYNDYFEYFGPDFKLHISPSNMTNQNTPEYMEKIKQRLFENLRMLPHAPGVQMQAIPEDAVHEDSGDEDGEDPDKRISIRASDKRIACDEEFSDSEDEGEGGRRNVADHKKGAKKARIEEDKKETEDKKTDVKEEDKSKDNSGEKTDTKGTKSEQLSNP
# Experimental: as §2
# [7] = target: T5, HDAC3 (Homo sapiens, UniProt O15379); test: HDAC3 fluorescent-based enzymatic activity assay; type: biochemical; settings: Table 3 isoform panel; read-out: Enzyme inhibition HDAC3 (Class I)
# T5 construct: purchased BPS Bioscience
# T5 sequence (O15379 whole entry, canonical isoform): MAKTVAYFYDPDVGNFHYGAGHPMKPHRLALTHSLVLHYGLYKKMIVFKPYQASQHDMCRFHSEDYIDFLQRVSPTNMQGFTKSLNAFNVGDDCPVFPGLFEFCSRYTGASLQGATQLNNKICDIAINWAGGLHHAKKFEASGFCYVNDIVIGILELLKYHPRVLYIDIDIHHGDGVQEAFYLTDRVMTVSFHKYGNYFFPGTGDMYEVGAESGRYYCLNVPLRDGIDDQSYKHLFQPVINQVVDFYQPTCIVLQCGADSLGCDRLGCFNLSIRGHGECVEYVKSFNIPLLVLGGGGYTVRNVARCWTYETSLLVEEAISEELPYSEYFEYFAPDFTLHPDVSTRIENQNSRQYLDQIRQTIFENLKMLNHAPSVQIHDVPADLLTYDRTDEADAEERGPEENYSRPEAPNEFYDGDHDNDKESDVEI
# T5 sequence (Q9Y618 395-489 partner limits assumed): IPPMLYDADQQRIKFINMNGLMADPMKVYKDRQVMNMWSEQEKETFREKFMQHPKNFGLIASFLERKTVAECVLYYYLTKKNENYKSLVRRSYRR
# Experimental: as §2
# [8] = test system: Ac-histone H3, Ac-α-tubulin, p-ERK in HCT116 cells; test: Western blot analysis of HDAC and RAF pathway in HCT116 cells; type: cell-based, human
# Experimental: FIGURE 3 Characterization of dual inhibition of HDAC and RAF pathway. Western blot analysis of 14b in HCT116 cells (A) and in HT-29 cells (B). Cells were treated with 0 μM, 0.12 μM, 0.37 μM, 1.1 μM, 3.3 μM, and 10 μM of drugs and incubated for 6 h. The cell lysis was subjected to Western blot analysis.
# The cells were treated with various concentrations of 14b for 6 h. Then, the cells were lysed using 1×SDS sample lysis buffer (CST recommended) with protease and phosphatase inhibitors. Cell lysates were loaded and electrophoresed onto 8–12% SDS-PAGE gel, and then the separated proteins were transferred to a PVDF film. The film was blocked with 5% BSA (Sigma-Aldrich, St. Louis, MO, United States) in a TBS solution containing 0.5% Tween-20 for 4 h at room temperature, then incubated with the corresponding primary antibody (1:1000–1:200) overnight at 4°C. After washing with TBST, HRP-conjugated secondary antibody was incubated for 2 h. The protein signals were visualized by the ECL Western Blotting Detection Kit (Thermo Scientific, Grand Island, NY, United States), and detected with Amersham Imager 600 system (GE, Boston, MA, United States).
# [9] = target: T6, BRAF (wild-type) (Homo sapiens, UniProt P15056); test: wild-type BRAF enzymatic activity, Z'-Lyte kinase assay; type: biochemical; settings: wild-type BRAF kinase; read-out: BRAF^wt enzymatic IC50
# T6 construct: purchased Invitrogen
# T6 sequence (P15056 whole entry): as the sequence (P15056 whole entry V600E) above, with E600V counted along it
# Experimental: as §1
# [10] = test system: BRAF (wild-type); test: as above; type: biochemical; settings: ratio of enzymatic IC50
# Experimental: as §1
# [11] = test system: HCT116 cells; test: Antiproliferation CCK-8 assay, HCT116; type: cell-based; settings: Homo sapiens, HCT-116; CCK-8, 72 h, HCT116 (wild-type BRAF); means of three independent experiments; read-out: Cellular IC50 HCT116
# Experimental: as §3, §4
structure (smiles),measurement,setting,value
"CC(C)(C)c1nc(-c2cccc(NS(=O)(=O)c3c(F)cccc3F)c2F)c(-c2ccnc(NCCCCCCC(=O)NO)n2)s1 [14b, 7-{[4-(2-(Tert-Butyl)-4-(3-((2,6-Difluorophenyl)Sulfonamido)-2-Fluorophenyl)Thiazol-5-yl)Pyrimidin-2-yl]Amino}-N-Hydroxyheptanamide]",phosphorylation of ERK (P-ERK),[1],downregulate P-ERK; also recorded: p-ERK inhibition was observed
same,IC50,[2],1.71 nM
same,IC50,[3],3000 nM
same,IC50,[4],> 100000 nM
same,IC50,[5],310 nM
same,IC50,[6],747 nM
same,IC50,[7],913 nM
same,expression of BRAF,[8]; HCT116 cells,did not affect the expression of BRAF itself
same,phosphorylation of ERK (p-ERK),"[8]; HCT116 cells (wild-type BRAF, K-RAS G13D), 0.12-10 μM, 6 h",significantly inhibited phosphorylation of ERK
same,acetylated histone H3 (Ac-histone H3),"[8]; HCT116 cells, 0.12-10 μM, 6 h",upregulated
same,acetylated α-tubulin (Ac-α-tubulin),"[8]; HCT116 cells, 0.12-10 μM, 6 h",upregulated
same,IC50,[9],4.07 nM
same,selectivity of BRAF^V600E over wild-type BRAF,[10],about 2 fold
same,IC50,[11],1680 nM
